Reference: patent US20080146555A1, “Uses of Kinase Inhibitors and Compositions Thereof” (GPC Biotech, Inc, priority 2004, published 2008)
Structures can show the parent of a compound that is named as a salt. Where two headings read alike, the source gives them in different places.

How the values were obtained:
Type in all cases: biochemical
GSK3β = biological target: T1, GSK3β (Homo sapiens, UniProt P49841); experiment: GSK3β kinase assay
T1 construct: purchased Upstate 14-306
Procedure: • 1. Reaction Buffer: 8 mM MOPS, pH 7.0, 0.2 mM EDTA, 110 mM magnesium acetate. • 2. GSK3β, active: 5-40 ng per assay point. Dilute to 0.5-4 ng/μl in Reaction Buffer containing 0.03% Brij-35. • 3. Phospho-Glycogen Synthase Peptide-2 (Catalog #12-241): Prepare a 250 μM stock. Use 10 μl per assay point for a final assay concentration of 62.5 μM per assay point. • 4. [γ-^32P]ATP: Stock 1 mCi/100 μl (3000 Ci/mmol, obtained from Perkin Elmer, Cat. # BLU002A). Make 10 μl aliquots (100 μCi/vial). Before starting the assay, dilute an aliquot to 1 μCi/μl with 90 μl of 75 mM magnesium chloride and 500 μM unlabeled ATP in 20 mM MOPS, pH 7.2, 25 mM β-glycerol phosphate, 5 mM EGTA, 1 mM sodium orthovanadate, 1 mM dithiothreitol.
• 1. Add 10 μl of Reaction Buffer per assay. • 2. Add 10 μl of substrate peptide [final assay concentration of 62.5 μM]. • 3. Add 10 μl of GSK3β, active [5-40 ng per assay]. • 4. Add 10 μl of the diluted [^32P]ATP mixture. • 5. Incubate for 30 minutes at 30° C. • 6. Spot 25 μl onto the center of a 2 cm×2 cm P81 paper square. • 7. Wash the assay squares five times with 0.75% phosphoric acid. • 8. Wash the assay squares once with acetone. • 9. Transfer the assay squares to vial and add 5 ml scintillation cocktail. • 10. Read in scintillation counter. Compare cpm of enzyme samples to cpm of control samples that contain no enzyme (background control).

Lck = biological target: T2, Lck (Homo sapiens, UniProt P06239); experiment: Lck kinase assay
T2 construct: purchased Upstate 14-442
Procedure: • 1. Assay Buffer: 200 mM Tris-HCl pH 7.5, 0.4 mM EGTA, 0.4 mM sodium orthovanadate. • 2. Enzyme Dilution Buffer (EDB): 20 mM MOPS, pH 7.5, 1 mM EDTA, 0.01% Brij-35, 5% glycerol, 0.1% β-mercaptoethanol, 1 mg/ml BSA. • 3. Lck, active: Dilute to 10-100 ng/μl with EDB. Use 2.5 μl per assay point. • 4. Src Substrate Peptide (Catalog #12-140): Prepare a 2.5 mM stock with sterile, distilled water. Use 2.5 μl per assay point for a final concentration of 250 μM per assay. • 5. Magnesium/ATP Cocktail (Catalog #20-113): 500 μM cold ATP and 75 mM magnesium chloride in 20 mM MOPS, pH 7.2, 25 mM β-glycerophosphate, 5 mM EGTA, 1 mM Na3VO4, 1 mM dithiothreitol. • 6. [γ-^32P]ATP: Stock 1 mCi/100 μl (3000 Ci/mmol, obtained from PerkinElmer, Catalog #BLU002A). Make 10 μl aliquots (100 μCi/vial). Before starting the assay, dilute the Magnesium/ATP Cocktail 1:1 with sterile, distilled water. Then dilute an aliquot of [γ-^32P]ATP to 1 μCi/μl with 90 μl of the diluted Magnesium/ATP Cocktail. […]
• 1. Add 6.25 μl of Assay Buffer per assay. • 2. Add 2.5 μl (25-250 ng) of Lck, active. • 3. Add 2.5 μl Src Substrate peptide (250 μM). • 4. Add 3.75 μl distilled water. • 5. Add 10 μl of the diluted [γ-^32P]ATP solution. • 6. Incubate for 10 minutes at 30° C. • 7. Transfer a 20 μl aliquot onto the center of a 2 cm×2 cm P81 paper. • 8. Wash assay squares five times with 0.75% phosphoric acid for 5 minutes per wash. • 9. Wash assay squares once with acetone for 5 minutes. • 10. Transfer assay squares to a scintillation vial and add 5 ml scintillation cocktail. • 11. Read in scintillation counter. Compare cpm of enzyme samples to cpm of control samples that contain no substrate (background control).

panel of Ser/Thr kinases = experiment: Kinase panel, Ser/Thr kinases (average); details: average over panel; for IC50: read-out: average IC50 among non-CDK Ser/Thr kinases
Lyn = biological target: T3, Lyn (Homo sapiens, UniProt P07948); experiment: Lyn kinase assay
T3 construct: purchased Upstate 14-510
Procedure: • 1. 10× Reaction Buffer: 500 mM Tris-HCl, pH 7.5, 1 mM EGTA, 1 mM sodium orthovanadate, 1% 2-mercaptoethanol. • 2. Enzyme Dilution Buffer (EDB): 50 mM Tris-HCl, pH 7.5, 1 mM EGTA, 0.1 mM sodium orthovanadate, 0.03% Brij-35, 0.1% 2-mercaptoethanol, 1 mg/ml BSA. • 3. Lyn, active: Dilute to 2-16 ng/μl with EDB. Use 2.5 μl per assay point. • 4. Poly(Glu-4-Tyr) (4:1): Prepare a 1 mg/ml stock. Use 2.5 μl per assay point for a final concentration of 0.1 mg/ml per assay point. • 5. [γ-^32P]ATP: Stock 1 mCi/100 μl (3000 Ci/mmol, obtained from PerkinElmer, Cat. # BLU002A). Make 10 μl aliquots (100 μCi/vial). Before starting the assay, dilute an aliquot to 1 μCi/μl with 90 μl of 75 mM MgCl2 and 500 μM cold ATP in 20 mM MOPS, pH 7.2, 25 mM β-glycerol phosphate, 5 mM EGTA, 1 mM sodium orthovanadate, 1 mM dithiothreitol.
• 1. Add 2.5 μl of 10× Reaction Buffer per assay. • 2. Add 2.5 μl of Poly (Glu-4-Tyr) (4:1). • 3. Add 2.5 μl (5-40 ng) Lyn, active. • 4. Add 7.5 μl of sterile, distilled water. • 5. Add 10 μl of the diluted [γ-^32P]ATP mixture. • 6. Incubate for 10 minutes at 30° C. • 7. Transfer a 20 μl aliquot onto the center of a 2 cm×2 cm P81 paper. • 8. Wash the assay squares three times for 5 minutes with 0.75% phosphoric acid. • 9. Wash the assay squares once for 5 minutes with acetone. • 10. Transfer the assay squares to vial and add 5 ml scintillation cocktail. • 11. Read in scintillation counter. Compare cpm of enzyme samples to cpm of control samples that contain background control.

[1] = kinase panel, 10 μM ATP, read-out: GSK3β IC50
[2] = read-out: GSK3B Inhibition (IC50)
[3] = read-out: LCK Inhibition (IC50)
[4] = read-out: LYN Inhibition (IC50)

T2 sequence (P06239 whole entry): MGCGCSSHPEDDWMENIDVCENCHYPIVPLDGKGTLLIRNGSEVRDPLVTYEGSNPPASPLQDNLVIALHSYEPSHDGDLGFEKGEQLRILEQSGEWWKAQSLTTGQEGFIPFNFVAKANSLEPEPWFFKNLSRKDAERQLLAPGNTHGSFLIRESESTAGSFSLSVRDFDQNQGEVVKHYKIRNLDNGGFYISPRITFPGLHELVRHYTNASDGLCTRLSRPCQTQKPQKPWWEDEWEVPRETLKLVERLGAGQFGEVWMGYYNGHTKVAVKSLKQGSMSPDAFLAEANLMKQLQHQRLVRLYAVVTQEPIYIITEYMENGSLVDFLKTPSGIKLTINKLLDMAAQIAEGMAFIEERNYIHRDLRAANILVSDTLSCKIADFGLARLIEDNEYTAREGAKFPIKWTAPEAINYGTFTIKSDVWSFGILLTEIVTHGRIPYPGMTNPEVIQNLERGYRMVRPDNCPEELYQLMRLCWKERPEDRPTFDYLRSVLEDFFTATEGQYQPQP
T1 sequence (P49841 whole entry): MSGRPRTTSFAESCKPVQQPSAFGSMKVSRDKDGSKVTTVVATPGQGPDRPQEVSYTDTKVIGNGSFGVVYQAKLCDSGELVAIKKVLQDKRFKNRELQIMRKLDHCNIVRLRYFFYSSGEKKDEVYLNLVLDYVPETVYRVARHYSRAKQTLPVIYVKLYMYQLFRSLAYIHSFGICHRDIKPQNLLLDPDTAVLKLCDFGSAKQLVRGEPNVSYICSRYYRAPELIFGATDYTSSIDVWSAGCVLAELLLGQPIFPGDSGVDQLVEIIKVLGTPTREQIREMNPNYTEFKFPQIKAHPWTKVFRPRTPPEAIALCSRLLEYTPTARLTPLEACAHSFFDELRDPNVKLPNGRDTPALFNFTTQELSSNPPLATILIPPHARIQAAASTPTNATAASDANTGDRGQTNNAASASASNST
T3 sequence (P07948 whole entry): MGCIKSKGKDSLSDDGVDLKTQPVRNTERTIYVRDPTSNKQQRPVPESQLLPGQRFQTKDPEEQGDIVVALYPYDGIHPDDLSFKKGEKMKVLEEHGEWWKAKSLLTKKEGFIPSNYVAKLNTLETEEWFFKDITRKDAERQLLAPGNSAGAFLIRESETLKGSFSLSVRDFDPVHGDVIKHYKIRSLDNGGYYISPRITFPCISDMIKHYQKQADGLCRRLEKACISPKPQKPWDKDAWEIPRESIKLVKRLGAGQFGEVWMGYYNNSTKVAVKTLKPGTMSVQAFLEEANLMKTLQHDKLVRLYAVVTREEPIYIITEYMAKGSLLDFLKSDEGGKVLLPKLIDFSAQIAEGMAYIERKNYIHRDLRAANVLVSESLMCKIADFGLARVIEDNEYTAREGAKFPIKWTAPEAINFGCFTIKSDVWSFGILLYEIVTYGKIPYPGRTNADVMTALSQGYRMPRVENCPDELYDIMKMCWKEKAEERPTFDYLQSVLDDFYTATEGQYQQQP

Structure (SMILES)	IC50 (GSK3β; [1]) [nM]	IC50 (GSK3β; [2]) [nM]	IC50 (Lck; [3]) [nM]	average IC50 among non-CDK Ser/Thr kinases (panel of Ser/Thr kinases)	IC50 (panel of Ser/Thr kinases) [nM]	IC50 (Lyn; [4]) [nM]	IC50 (Lck; kinase panel, 10 μM ATP, read-out: Lck (Lymphocyte kinase) IC50) [nM]	IC50 (Lyn; kinase panel, 10 μM ATP, read-out: Lyn IC50) [nM]
CC(C)N1CCN(C(=O)COc2ccc(-c3n[nH]c4c3C(=O)c3c(NC(=O)NN5CCOCC5)cccc3-4)cc2)CC1 [Compound A37]	< 3	< 5	< 50	about 29 nM	44	< 50	–	–
COCCN1CCN(Cc2ccc(-c3n[nH]c4c3C(=O)c3c(NC(=O)NN5CCOCC5)cccc3-4)cc2)CC1 [Compound B16, N-[3-(4-{[4-(2-methoxyethyl)piperazinyl]methyl}phenyl)-4-oxoindeno[2,3-d]pyrazol-5-yl](morpholin-4-ylamino)carboxamide dihydrochloride]	< 100	< 5	< 50	–	~50	< 100	< 100	< 100
